Data on one compound can be found in ChEMBL document CHEMBL5029168, “Discovery of novel ID2 antagonists from pharmacophore-based virtual screening as potential therapeutics for glioma” (Bioorg Med Chem, 2021).

Molecules are shown by their SMILES. Calls of active or inactive are those of the source. No cut-off for these calls is given here.

Series [1] has as its system U-87 MG. The series is described as follows: Cytotoxicity against human U87 cells assessed as reduction in cell viability incubated for 24 hrs by CCK8 assay. In kind it is functional, cell-based, U-87MG ATCC. On the technique in general: Tetrazolium assays rely on reduction of a dye to a coloured formazan, in cell work by metabolically active cells.
The test system of series [2] is GL261. The series is described as follows: Cytotoxicity against mouse GL261 cells assessed as reduction in cell viability incubated for 24 hrs by CCK8 assay. In kind it is functional, cell-based. The following applies: GL261, 24 h.
Series [3] concerns U-87 MG. The series is described as follows: Antimigratory activity against human U87 cells assessed as reduction in wound closure at 12.5 uM measured up to 24 hrs by scratch wound healing assay (Rvb =61.5+/-10.21%). Format: functional, U-87MG ATCC. Details: scale not given: the % may be the effect or the level left. The following applies: time hrs <=24.
Series [4] concerns GL261. The series is described as follows: Induction of apoptosis in mouse GL261 cells assessed as early apoptotic cells at 50 uM measured after 24 hrs by annexin V-FITC/propidium iodide staining based flow cytometry analysis (reference value: 1.61%). Format: functional. On the technique in general: In flow cytometry, cells or beads pass a laser one at a time.
Series [5] concerns GL261. The series is described as follows: Induction of apoptosis in mouse GL261 cells assessed as late apoptotic cells at 50 uM measured after 24 hrs by annexin V-FITC/propidium iodide staining based flow cytometry analysis (reference value: 1.01%). Format: functional.
Series [6] concerns U-87 MG. The series is described as follows: Induction of apoptosis in human U87 cells assessed as early apoptotic cells at 50 uM measured after 24 hrs by annexin V-FITC/propidium iodide staining based flow cytometry analysis (reference value: 4.35%). In kind it is functional, U-87MG ATCC.
Series [7] relates to U87. The series is described as follows: Inhibition of ID2/KDR signalling in human U87 cells assessed as reduction in MMP2 expression at 12.5 to 50 uM measured after 24 hrs by western blot analysis. Format: cell-based. Particulars: filed as antagonist, dose 12.5-50 µM. Background: Immunoblotting shows a protein as a band on a membrane.
Series [8] deals with U87. The series is described as follows: Inhibition of ID2/KDR signalling in human U87 cells assessed as reduction in MMP9 expression at 12.5 to 50 uM measured after 24 hrs by western blot analysis. Particulars: filed as antagonist, dose 12.5-50 µM. Format: cell-based.
The nature of series [9]: Antitumor activity against human U87 cells xenografted in NCG mouse assessed as tumor growth inhibition at 2.5 mg/kg, ip administered every other day for 5 days relative to control. The following applies: time 5 day. Details: scale not given: the % may be the effect or the level left. In kind it is functional, U-87MG ATCC.
Series [10] is described as follows: Toxicity in NCG mouse xenografted with human U87 cells assessed as reduction in body weight at 2.5 mg/kg, ip administered every other day for 5 days and measured after 12 days. In kind it is organism-based. The following applies: in vivo, 288 h, time 12 day.
A short description of series [11]: Aqueous solubility of compound at up to 80 uM measured after 10 mins by optical microscopic analysis. The following applies: buffer. Format: physicochemical.
Series [12] has as its system L02. The series is described as follows: Cytotoxicity against human L02 cells assessed as reduction in cell viability at up to 100 nM incubated for 24 hrs by CCK8 assay. The following applies: l02, 24 h. Format: cell-based.

Broadly, the IC50 is the concentration at which inhibition is half-maximal. As to `O=C(C[C@@]1(O)C(=O)N(Cc2cccc(Cl)c2)c2ccccc21)c1ccccn1`, the IC50 is 27.3 µM in series [1] and 38.2 µM in series [2]. The Activity in [3] was 5.59%; in [4], 13.1%; in [5], 69.3%; in series [6], 27.3%; in [9] it was 49.7%; in series [10], “Non-Toxic”. Besides, the Activity result in series [12] is on record as “Non-Toxic”. Further, the inhibition result in series [7] and in series [8] was “Active” each time. Further, the solubility entry in [11] is “Soluble”.
